The results in this text go back to patent publication US11142515B2, “Pyrazolyl-ureas as kinase inhibitors” (RESPIVERT LIMITED, priority 2014, dated 2021).

The target in assay [1] is T1, p38 MAPKα isoform (MAPK14) (Homo sapiens, UniProt Q16539).
T1 construct: purchased Life Technologies
Kind of assay: p38 MAPKα enzyme inhibition (Z-LYTE FRET). The assay is classed as biochemical. Conditions: Table 2B, unit inferred; read-out: p38 MAPKα (Enzyme Profile). In outline:
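Recombinant human MAPK14 (40 ng/mL stock) was preincubated 2 h at RT with compound (stock dilutions 0.0012-40 μg/mL). The Z-LYTE FRET read-out used a MAPKAP-K2-derived peptide, and protease development for 1 h cleaved only non-phosphorylated peptide. Phosphorylation was calculated from the coumarin/fluorescein emission ratio.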

A further assay deals with T2, p38MAPKγ (MAPK12) (Homo sapiens, UniProt P53778).
T2 construct: purchased Life Technologies
T2 sequence (P53778 1-367): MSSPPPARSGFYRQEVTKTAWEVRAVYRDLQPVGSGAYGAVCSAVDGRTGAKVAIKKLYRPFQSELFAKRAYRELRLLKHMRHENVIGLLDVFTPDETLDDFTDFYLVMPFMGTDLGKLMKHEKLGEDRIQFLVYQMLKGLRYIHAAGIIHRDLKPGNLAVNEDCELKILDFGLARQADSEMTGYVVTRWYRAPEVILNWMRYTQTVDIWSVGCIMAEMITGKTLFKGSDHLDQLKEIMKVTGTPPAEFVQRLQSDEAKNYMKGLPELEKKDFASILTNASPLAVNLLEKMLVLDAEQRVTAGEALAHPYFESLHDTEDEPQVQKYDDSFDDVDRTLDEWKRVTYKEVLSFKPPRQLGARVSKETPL
The assay is described as follows: p38 MAPKγ enzyme inhibition (Z-LYTE FRET). It counts as biochemical. To be noted: Table 2B, unit inferred; read-out: p38 MAPKγ (Enzyme Profile). The gist of the method:
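Z-LYTE read-out: after 1 h protease development, only non-phosphorylated peptide is cleaved, and the donor/acceptor (coumarin/fluorescein) ratio reports phosphorylation. Beforehand, enzyme and compound (stock concentrations 0.0012–40 μg/mL) were preincubated 2 h at RT, then the kinase reaction ran 1 h at RT with peptide and ATP (8 μM and 400 μM stocks).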

T1 sequence (Q16539 whole entry, canonical isoform): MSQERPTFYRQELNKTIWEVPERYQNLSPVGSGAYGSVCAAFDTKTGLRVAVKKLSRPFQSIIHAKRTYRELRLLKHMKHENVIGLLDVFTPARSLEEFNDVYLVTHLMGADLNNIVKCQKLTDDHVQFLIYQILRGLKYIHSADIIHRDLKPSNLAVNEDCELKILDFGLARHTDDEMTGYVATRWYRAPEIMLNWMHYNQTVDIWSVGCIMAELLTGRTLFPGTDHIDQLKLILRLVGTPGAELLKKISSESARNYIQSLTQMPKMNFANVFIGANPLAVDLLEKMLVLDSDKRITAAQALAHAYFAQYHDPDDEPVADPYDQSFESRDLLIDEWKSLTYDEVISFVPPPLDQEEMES

In the case of `COc1cc(C)cc(-n2nc(C(C)(C)C)cc2NC(=O)Nc2ccc(OCc3ccnc(Nc4cnc(C(=O)N5CCCC5)cn4)c3)c3ccccc23)c1` [Example 227, 1-(3-(tert-butyl)-1-(3-methoxy-5-methylphenyl)-1H-pyrazol-5-yl)-3-(4-((2-((5-(pyrrolidine-1-carbonyl)pyrazin-2-yl)amino)pyridin-4-yl)methoxy)naphthalen-1-yl)urea], the figures for the IC50 (in assay [1]; on p38MAPKγ (MAPK12)) were 43 nM and over 13800 nM, respectively.

As to `CCc1cnc(Nc2cc(COc3ccc(NC(=O)Nc4cc(C(C)(C)C)nn4-c4ccc(C)c(C)c4)c4ccccc34)ccn2)cn1` [Example 151, 1-(3-(tert-butyl)-1-(3,4-dimethylphenyl)-1H-pyrazol-5-yl)-3-(4-((2-((5-ethylpyrazin-2-yl)amino)pyridin-4-yl)methoxy)naphthalen-1-yl)urea], the IC50 in assay [1] is 35 nM; at p38MAPKγ (MAPK12), 439 nM.

`CCCNC(=O)c1cnc(Nc2cc(COc3ccc(NC(=O)Nc4cc(C(C)(C)C)nn4-c4ccc(C)cc4)c4ccccc34)ccn2)cn1` [Example 192, 5-((4-(((4-(3-(3-(tert-butyl)-1-(p-tolyl)-1H-pyrazol-5-yl)ureido)naphthalen-1-yl)oxy)methyl)pyridin-2-yl)amino)-N-propylpyrazine-2-carboxamide]: the IC50 in assay [1] was 46 nM; at p38MAPKγ (MAPK12) it was over 14600 nM.

Regarding `Cc1cc(F)cc(-n2nc(C(C)(C)C)cc2NC(=O)Nc2ccc(OCc3ccnc(Nc4cnc(C(=O)N5CCCC5)cn4)c3)c3ccccc23)c1` [Example 236, 1-(3-(tert-butyl)-1-(3-fluoro-5-methylphenyl)-1H-pyrazol-5-yl)-3-(4-((2-((5-(pyrrolidine-1-carbonyl)pyrazin-2-yl)amino)pyridin-4-yl)methoxy)naphthalen-1-yl)urea], the results for the IC50 (in assay [1]; at p38MAPKγ (MAPK12)) were 42 nM and over 14000 nM, respectively.

Take `Cc1ccc(-n2nc(C(C)(C)C)cc2NC(=O)Nc2ccc(OCc3ccnc(Nc4cnc(C(=O)N5C[C@@H](C)O[C@@H](C)C5)cn4)c3)c3ccccc23)cc1` [Example 214, 1-(3-(tert-butyl)-1-(p-tolyl)-1H-pyrazol-5-yl)-3-(4-((2-((5-((2S,6R)-2,6-dimethyl-morpholine-4-carbonyl)pyrazin-2-yl)amino)pyridin-4-yl)methoxy)naphthalen-1-yl)urea]: the IC50 was found to be 31 nM in assay [1] and 1930 nM on p38MAPKγ (MAPK12).

On to `Cc1cccc(-n2nc(C(C)(C)C)cc2NC(=O)Nc2ccc(OCc3ccnc(Nc4cnc(C(=O)N5CC[C@@H](O)C5)cn4)c3)c3ccccc23)c1` [Example 69], for which the IC50 in assay [1] was 8 nM; at p38MAPKγ (MAPK12), 106 nM.

As to `CNC(=O)c1cnc(Nc2cc(COc3ccc(NC(=O)Nc4cc(C(C)(C)C)nn4-c4cccc(C)c4)c4ccccc34)ccn2)cn1` [Example 204, 5-((4-(((4-(3-(3-(tert-butyl)-1-(m-tolyl)-1H-pyrazol-5-yl)ureido)naphthalen-1-yl)oxy)methyl)pyridin-2-yl)amino)-N-methylpyrazine-2-carboxamide], the IC50 was 16 nM in assay [1] and 330 nM on p38MAPKγ (MAPK12).

Consider `CCc1ncc(Nc2cc(COc3ccc(NC(=O)Nc4cc(C(C)(C)C)nn4-c4ccc(C)cc4)c4ccccc34)ccn2)nc1CC` [Example 139, 1-(3-(tert-butyl)-1-(p-tolyl)-1H-pyrazol-5-yl)-3-(4-((2-((5,6-diethylpyrazin-2-yl)amino)pyridin-4-yl)methoxy)naphthalen-1-yl) urea], for which the figures for the IC50 (in assay [1]; at p38MAPKγ (MAPK12)) were 53 nM and 1110 nM, respectively.

In the case of `CCOc1cncc(Nc2cc(COc3ccc(NC(=O)Nc4cc(C(C)(C)C)nn4-c4ccc(C)cc4)c4ccccc34)ccn2)n1` [Example 116, 1-(3-(tert-butyl)-1-(p-tolyl)-1H-pyrazol-5-yl)-3-(4-((2-((6-ethoxypyrazin-2-yl)amino)pyridin-4-yl)methoxy)naphthalen-1-yl)urea], the IC50 amounted to 23 nM in assay [1] and 2820 nM at p38MAPKγ (MAPK12).

With `CCc1cccc(-n2nc(C(C)(C)C)cc2NC(=O)Nc2ccc(OCc3ccnc(Nc4cnc(C(=O)N5CCCC5)cn4)c3)c3ccccc23)c1` [Example 230, 1-(3-(tert-butyl)-1-(3-ethyl-phenyl)-1H-pyrazol-5-yl)-3-(4-((2-((5-(pyrrolidine-1-carbonyl)pyrazin-2-yl)amino)pyridin-4-yl)methoxy)naphthalen-1-yl)urea], the IC50 in assay [1] was 43 nM; at p38MAPKγ (MAPK12) it was over 14100 nM.

For the compound `COc1ccc(-n2nc(C(C)(C)C)cc2NC(=O)Nc2ccc(OCc3ccnc(Nc4cncc(OC)n4)c3)c3ccccc23)cc1` [Example 108, 1-(3-(tert-butyl)-1-(4-methoxyphenyl)-1H-pyrazol-5-yl)-3-(4-((2-((6-methoxypyrazin-2-yl)amino)pyridin-4-yl)methoxy)naphthalen-1-yl)urea], the figures for the IC50 (in assay [1]; on p38MAPKγ (MAPK12)) were 17 nM and 15500 nM, respectively.

For `Cc1ccc(-n2nc(C(C)(C)C)cc2NC(=O)Nc2ccc(OCc3ccnc(Nc4cncc(CCO)n4)c3)c3ccccc23)cc1` [Example 171, 1-(3-(tert-butyl)-1-(p-tolyl)-1H-pyrazol-5-yl)-3-(4-((2-((6-(2-hydroxyethyl)pyrazin-2-yl)amino)pyridin-4-yl)methoxy)naphthalen-1-yl)urea], the IC50 in assay [1] was determined as 12 nM; at p38MAPKγ (MAPK12), 49 nM.

As for `COCCN(C)C(=O)c1cnc(Nc2cc(COc3ccc(NC(=O)Nc4cc(C(C)(C)C)nn4-c4cccc(C)c4)c4ccccc34)ccn2)cn1` [Example 205, 5-((4-(((4-(3-(3-(tert-butyl)-1-(m-tolyl)-1H-pyrazol-5-yl)ureido)naphthalen-1-yl)oxy)methyl)pyridin-2-yl)amino)-N-(2-methoxyethyl)-N-methylpyrazine-2-carboxamide], the IC50 in assay [1] came to 13 nM; on p38MAPKγ (MAPK12), 263 nM.

`COc1cccc(-n2nc(C(C)(C)C)cc2NC(=O)Nc2ccc(OCc3ccnc(Nc4cnccn4)c3)c3ccccc23)c1` [Example 142, 1-(3-(tert-butyl)-1-(3-methoxyphenyl)-1H-pyrazol-5-yl)-3-(4-((2-(pyrazin-2-ylamino)pyridin-4-yl)methoxy)naphthalen-1-yl) urea]: the IC50 in assay [1] came out at 5.7 nM; at p38MAPKγ (MAPK12), 78 nM.

In the case of `COc1cc(-n2nc(C(C)(C)C)cc2NC(=O)Nc2ccc(OCc3ccnc(Nc4cnccn4)c3)c3ccccc23)ccn1` [Example 264, 1-(3-(tert-butyl)-1-(2-methoxypyridin-4-yl)-1H-pyrazol-5-yl)-3-(4-((2-(pyrazin-2-ylamino)pyridin-4-yl)methoxy)naphthalen-1-yl)urea], the figures for the IC50 (in assay [1]; on p38MAPKγ (MAPK12)) were 23 nM and 109 nM, respectively.

With `COCCc1cccc(-n2nc(C(C)(C)C)cc2NC(=O)Nc2ccc(OCc3ccnc(Nc4cnccn4)c3)c3ccccc23)c1` [Example 257, 1-(3-(tert-butyl)-1-(3-(2-methoxyethyl)phenyl)-1H-pyrazol-5-yl)-3-(4-((2-(pyrazin-2-ylamino)pyridin-4-yl)methoxy)naphthalen-1-yl)urea], the values for the IC50 (in assay [1]; at p38MAPKγ (MAPK12)) were 12 nM and 68 nM, respectively.

On to `COc1cc(-n2nc(C(C)(C)C)cc2NC(=O)Nc2ccc(OCc3ccnc(Nc4cnc(C)c(C)n4)c3)c3ccccc23)ccc1C` [Example 208, 1-(3-(tert-butyl)-1-(3-methoxy-4-methylphenyl)-1H-pyrazol-5-yl)-3-(4-((2-((5,6-dimethylpyrazin-2-yl)amino)pyridin-4-yl)methoxy)naphthalen-1-yl) urea], for which the results for the IC50 (in assay [1]; at p38MAPKγ (MAPK12)) were 50 nM and over 15200 nM, respectively.
